A melting point of 87 to 88 °C was found for `Nc1nc2ccccc2n1-c1cc(NC2CCCNC2)ncn1` (stereo not shown) [Compound 3] in this work.

From US8076343B2, “Benzimidazoles useful as inhibitors of protein kinases” (Vertex Pharmaceuticals Incorporated, priority 2005, dated 2011)
